Earlier results, collected in patent US20040087564A1, “Delivery composition and method” (priority 2002, published 2004).

In the case of `C[C@]12CC[C@H]3[C@@H](CCC4=CC(=O)CC[C@@]43C)[C@@H]1CC[C@@H]2O` [testosterone], the “true testosterone disposition half-life” value (in rabbits) is given as ~15 min and the testosterone clearance (male rabbit, Bourget et al., Steroids 43:225-233 (1984)) is given as 29.2 mL/min/kg.
